Laboratory results taken from ChEMBL document CHEMBL4196131 (J Med Chem, 2018).
Activity calls are given as the source filed them. The calls are words filed in the database; no cut-off is given here.

How the values were obtained:
Estrogen receptor [1] = biological target: T1, Estrogen receptor (Homo sapiens, UniProt P03372); experiment: Binding affinity to human ERalpha LBD after 2 hrs in absence of light by competitive fluorometric binding assay
T1 sequence (P03372 whole entry): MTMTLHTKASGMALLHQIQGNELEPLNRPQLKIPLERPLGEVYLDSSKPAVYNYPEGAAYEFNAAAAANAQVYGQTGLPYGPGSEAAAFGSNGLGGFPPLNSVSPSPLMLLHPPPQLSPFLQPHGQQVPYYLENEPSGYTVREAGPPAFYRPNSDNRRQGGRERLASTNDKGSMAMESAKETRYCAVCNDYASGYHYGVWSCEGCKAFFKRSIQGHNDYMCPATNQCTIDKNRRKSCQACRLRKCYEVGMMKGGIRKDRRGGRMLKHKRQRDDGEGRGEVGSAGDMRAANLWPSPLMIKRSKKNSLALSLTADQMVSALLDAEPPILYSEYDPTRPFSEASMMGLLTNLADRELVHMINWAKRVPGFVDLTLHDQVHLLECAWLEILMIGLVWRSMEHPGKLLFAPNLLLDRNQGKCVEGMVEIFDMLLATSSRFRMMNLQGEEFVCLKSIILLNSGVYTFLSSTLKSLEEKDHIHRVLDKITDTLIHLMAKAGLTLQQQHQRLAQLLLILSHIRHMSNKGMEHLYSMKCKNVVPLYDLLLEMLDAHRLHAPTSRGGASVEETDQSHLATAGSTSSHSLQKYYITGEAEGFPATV

Estrogen receptor beta [2] = biological target: T2, Estrogen receptor beta (Homo sapiens, UniProt Q92731); experiment: Binding affinity to human ERbeta LBD after 2 hrs in absence of light by competitive fluorometric binding assay
T2 sequence (Q92731 whole entry, the tested form may be a part): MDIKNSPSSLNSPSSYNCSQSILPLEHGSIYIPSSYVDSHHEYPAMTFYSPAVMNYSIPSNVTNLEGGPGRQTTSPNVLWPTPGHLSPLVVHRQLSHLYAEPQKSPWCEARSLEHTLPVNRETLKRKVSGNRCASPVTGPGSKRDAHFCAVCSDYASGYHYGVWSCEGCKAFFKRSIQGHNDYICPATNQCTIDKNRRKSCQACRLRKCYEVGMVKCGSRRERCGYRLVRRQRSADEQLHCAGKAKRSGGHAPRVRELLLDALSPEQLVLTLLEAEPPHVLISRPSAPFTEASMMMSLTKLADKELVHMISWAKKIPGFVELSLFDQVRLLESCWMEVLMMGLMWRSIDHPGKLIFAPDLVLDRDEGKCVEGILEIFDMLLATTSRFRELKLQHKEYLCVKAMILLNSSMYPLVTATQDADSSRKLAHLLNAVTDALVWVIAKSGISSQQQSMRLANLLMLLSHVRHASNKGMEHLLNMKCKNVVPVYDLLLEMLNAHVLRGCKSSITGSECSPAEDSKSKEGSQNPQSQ

[3] = biological target: T3, Estrogen receptor (Homo sapiens) (UniProt P03372); experiment: Agonist activity at human ERalpha expressed in HEK293T cells after 24 hrs by ERE-based dual luciferase reporter gene assay relative to E2; assay type: cell-based
T3 sequence (whole entry): T1 sequence (P03372 whole entry)

Estrogen receptor beta [4] = biological target: T2, Estrogen receptor beta; experiment: Agonist activity at human ERbeta expressed in HEK293T cells after 24 hrs by ERE-based dual luciferase reporter gene assay; assay type: cell-based
Estrogen receptor beta [5] = biological target: T2, Estrogen receptor beta; experiment: Agonist activity at human ERbeta expressed in HEK293T cells after 24 hrs by ERE-based dual luciferase reporter gene assay relative to E2; assay type: cell-based
Estrogen receptor [6] = biological target: T1, Estrogen receptor; experiment: Antagonist activity at human ERalpha expressed in HEK293T cells after 24 hrs by ERE-based dual luciferase reporter gene assay; assay type: cell-based
[7] = biological target: T3, Estrogen receptor (Homo sapiens); experiment: Antagonist activity at human ERalpha expressed in HEK293T cells after 24 hrs by ERE-based dual luciferase reporter gene assay relative to E2; assay type: cell-based
Estrogen receptor beta [8] = biological target: T2, Estrogen receptor beta; experiment: Antagonist activity at human ERbeta expressed in HEK293T cells after 24 hrs by ERE-based dual luciferase reporter gene assay; assay type: cell-based
Estrogen receptor beta [9] = biological target: T2, Estrogen receptor beta; experiment: Antagonist activity at human ERbeta expressed in HEK293T cells after 24 hrs by ERE-based dual luciferase reporter gene assay relative to E2; assay type: cell-based; set-up: concentration or dose not given beside the values
[10] = Inhibition of NFkappaB in mouse RAW 264.7 cells assessed as reduction in LPS induced NO production after 24 hrs by Griess assay; assay type: cell-based; details: RAW264.7, 24 h
Mus musculus [11] = species: Mus musculus; experiment: Inhibition of NFkappaB in mouse RAW 264.7 cells assessed as reduction in LPS induced NO production at 10 uM after 24 hrs by Griess assay relative to control; assay type: cell-based
MCF7 [12] = experiment: Antitumor activity against human MCF7 cells xenografted in nude Balb/c mouse assessed as reduction in tumor burden at 17.5 mg/kg, po administered once every 2 days via gavage measured every 3 days; assay type: functional, organism-based
MCF7 [13] = experiment: Antitumor activity against human MCF7 cells xenografted in nude Balb/c mouse assessed as reduction in tumor burden at 25 mg/kg, po administered once every 2 days via gavage measured on day 12; assay type: functional; set-up: scale not given: the % may be the effect or the level left
MCF7 [14] = experiment: Antitumor activity against human MCF7 cells xenografted in nude Balb/c mouse assessed as tumor growth inhibition at 25 mg/kg, po administered once every 2 days via gavage measured on day 27; assay type: functional; details: read-out: TGI
Mus musculus [15] = experiment: Toxicity in nude Balb/c mouse xenografted with human MCF7 cells assessed as reduction in body weight at 17.5 to 25 mg/kg, po administered once every 2 days via gavage measured every 3 days; assay type: organism-based; details: in vivo
Mus musculus [16] = experiment: Antiinflammatory activity in Balb/c mouse xenografted with human MCF7 cells assessed as inhibition of NFkappaB expression in tissues around the tumor at 17.5 to 25 mg/kg, po administered once every 2 days via gavage measured after 2 weeks post dose; assay type: functional, organism-based
Mus musculus [17] = experiment: Antiinflammatory activity in Balb/c mouse xenografted with human MCF7 cells assessed as inhibition of IL6 expression in tissues around the tumor at 17.5 to 25 mg/kg, po administered once every 2 days via gavage measured after 2 weeks post dose; assay type: functional, organism-based
Mus musculus [18] = experiment: Antiinflammatory activity in Balb/c mouse xenografted with human MCF7 cells assessed as inhibition of TNFalpha expression in tissues around the tumor at 17.5 to 25 mg/kg, po administered once every 2 days via gavage measured after 2 weeks post dose; assay type: functional, organism-based
MCF7 [19] = experiment: cells; details: Homo sapiens, MCF7, 72 h
MCF7 [20] = experiment: Antiproliferative activity against human MCF7 cells at 5 to 20 uM after 48 hrs in presence of JSH-23 by MTT assay
[21] = Inhibition of NFkappaB in mouse RAW 264.7 cells assessed as reduction in LPS induced NO production after 24 hrs in presence of resveratrol by Griess assay relative to control; assay type: cell-based; details: RAW264.7, 24 h
Mus musculus [22] = species: Mus musculus; experiment: Inhibition of NFkappaB in mouse RAW 264.7 cells assessed as reduction in LPS induced NO production at 10 uM after 24 hrs in presence of resveratrol by Griess assay relative to control; assay type: cell-based
MCF7 [23] = experiment: Antiproliferative activity against human MCF7 cells after 72 hrs in presence of resveratrol by MTT assay; assay type: functional, cell-based; details: MCF7, 72 h
[24] = Inhibition of NFkappaB in mouse RAW 264.7 cells assessed as reduction in LPS induced NO production after 24 hrs in presence of OBHS by Griess assay; details: RAW264.7, 24 h
Mus musculus [25] = species: Mus musculus; experiment: Inhibition of NFkappaB in mouse RAW 264.7 cells assessed as reduction in LPS induced NO production at 10 uM after 24 hrs in presence of OBHS by Griess assay relative to control; assay type: cell-based
MCF7 [26] = experiment: Antiproliferative activity against human MCF7 cells after 72 hrs in presence of OBHS by MTT assay; details: MCF7, 72 h
Estrogen receptor [27] = biological target: T1, Estrogen receptor; experiment: Agonist activity at human ERalpha expressed in HEK293T cells after 24 hrs by ERE-based dual luciferase reporter gene assay; assay type: cell-based

## COc1cc(/C=C/c2ccc(OS(=O)(=O)C3CC4OC3C(c3ccc(O)cc3)=C4c3ccc(O)cc3)cc2)cc(OC)c1 (centres undefined)
Estrogen receptor [1]
  Ki: 0.0349 µM
Estrogen receptor beta [2]
  Ki: 0.0734 µM
[3]
  Efficacy: 9 to 23%
Estrogen receptor beta [4]
  EC50: 0.004 µM
Estrogen receptor beta [5]
  Efficacy: 23%
Estrogen receptor [6]
  IC50: 0.007 µM
[7]
  Efficacy: 48%
Estrogen receptor beta [8]
  IC50: 0.934 µM
Estrogen receptor beta [9]
  Efficacy: 32%
[10]
  IC50: 0.44 µM
Mus musculus [11]
  inhibition: 95.6%
MCF7 [12]
  Activity: Active
MCF7 [13]
  Activity: 55%
MCF7 [14]
  inhibition in vivo at 25 mg/kg: ≤ 69%
Mus musculus [15]
  Activity: Non-Toxic
Mus musculus [16]
  inhibition: Active
Mus musculus [17]
  inhibition: Active
Mus musculus [18]
  inhibition: Active
MCF7 [19]
  IC50: 3.7 µM
MCF7 [20]
  Activity: inactive

## O=S(=O)(Oc1ccccc1)[C@H]1C[C@@H]2O[C@@H]1C(c1ccc(O)cc1)=C2c1ccc(O)cc1 (relative stereo)
[10]
  IC50: 18.4 µM
Mus musculus [11]
  inhibition: 41.5%
[21]
  IC50: 11 µM
Mus musculus [22]
  inhibition: 80.4%
MCF7 [23]
  IC50: 25.4 µM
MCF7 [19]
  IC50: 32 µM

## Oc1ccc(/C=C/c2cc(O)cc(O)c2)cc1 [RESVERATROL]
[10]
  IC50: 13.1 µM
Mus musculus [11]
  inhibition: 48%
[24]
  IC50: 11 µM
Mus musculus [25]
  inhibition: 80.4%
MCF7 [26]
  IC50: 25.4 µM
MCF7 [19]
  IC50: 22.9 µM

## COc1cc(/C=C/c2ccc(C3=C(c4ccc(O)cc4)C4CC(S(=O)(=O)Oc5ccc(Br)cc5)C3O4)cc2)cc(OC)c1 (centres undefined)
Estrogen receptor [1]
  Ki: > 10 µM
Estrogen receptor beta [2]
  Ki: > 10 µM
[3]
  Efficacy: 18%
Estrogen receptor beta [5]
  Efficacy: 6%
Estrogen receptor [6]
  IC50: 9.27 µM
[7]
  Efficacy: 97%
Estrogen receptor beta [9]
  Efficacy: 94%
[10]
  IC50: > 100 µM
Mus musculus [11]
  inhibition: 30.8%
MCF7 [19]
  IC50: > 100 µM

## CC/C(=C(\c1ccccc1)c1ccc(OCCN(C)C)cc1)c1ccccc1 [TAMOXIFEN]
MCF7 [13]
  Activity: 48%
MCF7 [14]
  inhibition in vivo at 25 mg/kg: 33%

## O=S(=O)(Oc1ccccc1Cl)C1CC2OC1C(c1ccc(/C=C/c3cc(O)cc(O)c3)cc1)=C2c1ccc(O)cc1 (centres undefined)
Estrogen receptor [27]
  EC50: 0.273 µM
[3]
  Efficacy: 79%
Estrogen receptor beta [4]
  EC50: 0.063 µM
Estrogen receptor beta [5]
  Efficacy: 25%
Estrogen receptor [6]
  IC50: 0.166 µM
[7]
  Efficacy: 49%
Estrogen receptor beta [8]
  IC50: 4.31 µM
Estrogen receptor beta [9]
  Efficacy: 45%
[10]
  IC50: 5 µM
Mus musculus [11]
  inhibition: 60.9%
MCF7 [19]
  IC50: 40.4 µM

## O=S(=O)(Oc1ccccc1C(F)(F)F)C1CC2OC1C(c1ccc(/C=C/c3cc(O)cc(O)c3)cc1)=C2c1ccc(O)cc1 (centres undefined)
Estrogen receptor [1]
  Ki: 0.499 µM
[3]
  Efficacy: -24%
Estrogen receptor beta [4]
  EC50: 2.9 µM
Estrogen receptor beta [5]
  Efficacy: 48%
[7]
  Efficacy: 3%
Estrogen receptor beta [9]
  Efficacy: 82%
[10]
  IC50: 17.2 µM
Mus musculus [11]
  inhibition: 38.5%
MCF7 [19]
  IC50: 18.3 µM

## COc1cc(/C=C/c2ccc(C3=C(c4ccc(O)cc4)C4CC(S(=O)(=O)Oc5ccccc5)C3O4)cc2)cc(OC)c1 (centres undefined)
Estrogen receptor [1]
  Ki: > 10 µM
Estrogen receptor beta [2]
  Ki: > 10 µM
[3]
  Efficacy: 10%
Estrogen receptor beta [4]
  EC50: 5.76 µM
Estrogen receptor beta [5]
  Efficacy: 57%
[7]
  Efficacy: 89%
Estrogen receptor beta [9]
  Efficacy: 85%
[10]
  IC50: > 100 µM
Mus musculus [11]
  inhibition: 20.4%
MCF7 [19]
  IC50: > 100 µM
